Reference: the supplement of paper PMC10920090

Assays:
MDA-MB-231 [1] = experiment: drug sensitivity score (DSS), cytotoxicity CellTox Green; higher = more cytotoxic; extreme values may be limits of the assay; conditions: 72 h
MDA-MB-231 [2] = experiment: drug sensitivity score (DSS), cell viability CellTiter-Glo; higher = more sensitive; extreme values may be limits of the assay; conditions: 72 h
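For drug sensitivity score (DSS), cytotoxicity CellTox Green in this document: DSS summarises each dose–response curve by combining IC50, EC50, maximal inhibition and efficacy across drug concentrations.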

SMILES | drug sensitivity score (MDA-MB-231 [1]; shRNA: shPPFIA1_1) [DSS] | drug sensitivity score (MDA-MB-231 [1]; shRNA: shScramble) [DSS] | drug sensitivity score (MDA-MB-231 [2]; shRNA: shPPFIA1_1) [DSS] | drug sensitivity score (MDA-MB-231 [2]; shRNA: shScramble) [DSS]
CCn1cc(-c2ccnc3[nH]c(-c4cccc(CN(C)C)c4)cc23)c(-c2ccc(NC(=O)N(C)C)cc2)n1 | 0 | 6.4 | 3.9 | 0
CNC(=O)c1nn(C)c2c1C(C)(C)Cc1cnc(Nc3ccc(N4CCN(C)CC4)cc3)nc1-2 [Milciclib] | 0.3 | 0 | 0.9 | 5.1
C[C@]12C=CC(=O)C=C1CC[C@@H]1[C@@H]2C(=O)C[C@@]2(C)[C@H]1CC[C@]2(O)C(=O)CO [Prednisone] | 0 | 0 | 0 | 0
C/C=C1\NC(=O)[C@H]2CSSCC/C=C/[C@H](CC(=O)N[C@H](C(C)C)C(=O)N2)OC(=O)[C@H](C(C)C)NC1=O [Romidepsin] | 33.6 | 26.9 | 20.5 | 29
COc1cc2c(cc1-c1c(C)noc1C)ncc1[nH]c(=O)n([C@H](C)c3ccccn3)c12 [I-BET151] | 0 | 0 | 0 | 6.1
O=C(O)C(=O)O.[NH-][C@@H]1CCCC[C@H]1[NH-].[Pt+2] [Oxaliplatin] | 0 | 0 | 0 | 2
O=C(Nc1cccnc1)N1CCC(Cc2cccc(Oc3ccc(C(F)(F)F)cn3)c2)CC1 [PF-3845] | 4 | 0.3 | 4.3 | 4
Cc1nn(C)c(COc2ccc(N3CCN(S(=O)(=O)N(C)C)CC3)cc2)c1-c1cccc2c(CCCOc3cccc4ccccc34)c(C(=O)O)n(CCN3CCOCC3)c12 | 2.4 | 7.1 | 13.3 | 4.2
N#CCNC(=O)c1ccc(-c2ccnc(Nc3ccc(N4CCOCC4)cc3)n2)cc1 [Momelotinib] | 0 | 0 | 0 | 0
COc1cc(Nc2ncc(F)c(Nc3ccc4c(n3)NC(=O)C(C)(C)O4)n2)cc(OC)c1OC [Tamatinib] | 0.2 | 0 | 0 | 1.8
CCc1c2c(nc3ccc(O)cc13)-c1cc3c(c(=O)n1C2)COC(=O)[C@]3(O)CC [SN-38] | 14.9 | 2 | 0.2 | 7.6
C#Cc1cccc(Nc2ncnc3cc(OC)c(OCCCCCCC(=O)NO)cc23)c1 [CUDC-101] | 10.2 | 7.4 | 6.2 | 9.8
Cc1c(Cn2c(C)nc3c(C(=O)O)cc(N4CCOCC4)cc32)cccc1C(F)(F)F | 0 | 0 | 3.6 | 2.8
C/C(=C\c1csc(C)n1)[C@@H]1C[C@@H]2O[C@]2(C)CCC[C@H](C)[C@H](O)[C@@H](C)C(=O)C(C)(C)[C@@H](O)CC(=O)O1 [Patupilone] | 8.3 | 5.8 | 0 | 12.3
Nc1ccn([C@@H]2O[C@H](CO)[C@@H](O)C2(F)F)c(=O)n1 [Gemcitabine] | 0.3 | 0 | 1.3 | 8.6
CS(=O)(=O)c1ccc(C2=C(c3ccccc3)C(=O)OC2)cc1 [Rofecoxib] | 0 | 0 | 0 | 0
O=C(O)C1(C(=O)O)CCC1.[NH2-].[NH2-].[Pt+2] [Carboplatin] | 0 | 0 | 0 | 0
N#Cc1c(Oc2ccc(F)c(NC(=O)Cc3cccc(C(F)(F)F)c3)c2)ccc2nc(NC(=O)C3CC3)sc12 [TAK-632] | 17.8 | 5.3 | 1.6 | 8.7
CC(C)(C)C[C@@H]1N[C@@H](C(=O)N[C@H]2CC[C@H](O)CC2)[C@H](c2cccc(Cl)c2F)[C@]12C(=O)Nc1cc(Cl)ccc12 | 0 | 0.7 | 0 | 0
Nc1ccccc1NC(=O)c1ccc(CNC(=O)OCc2cccnc2)cc1 [Entinostat] | 3.9 | 0.2 | 0.3 | 4.5
N#CC[C@H](C1CCCC1)n1cc(-c2ncnc3[nH]ccc23)cn1 [Ruxolitinib] | 0 | 0 | 0.6 | 2.1
Nc1nc2[nH]cnc2c(=S)[nH]1 [Thioguanine] | 0 | 0 | 5.1 | 10.2
CC[C@H](CC#N)OC(=O)N[C@@H](C)c1cccc(NC(=O)Nc2ccc(-c3cnco3)c(OC)c2)c1 [AVN944] | 0 | 0 | 0 | 5.4
O[C@H]1CC[C@H](Nc2ncc3nc(Nc4c(F)cc(F)cc4F)n([C@H]4CCOC4)c3n2)CC1 [Tanzisertib] | 0 | 0 | 0 | 3.1
COC(=O)c1ccc2c(c1)NC(=O)/C2=C(\Nc1ccc(N(C)C(=O)CN2CCN(C)CC2)cc1)c1ccccc1 [Nintedanib] | 1.1 | 6.7 | 0 | 8.1
COc1cc([C@@H]2c3cc4c(cc3[C@@H](O[C@@H]3O[C@@H]5CO[C@@H](c6cccs6)O[C@H]5[C@H](O)[C@H]3O)[C@H]3COC(=O)[C@H]23)OCO4)cc(OC)c1O [Teniposide] | 5.8 | 5.3 | 3.1 | 9
O=S(=O)(c1cccc2cnccc12)N1CCCNCC1 [Fasudil] | 1.6 | 2.1 | 2.6 | 1.4
CO[C@H]1C(=O)[C@]2(C)[C@@H](OC)C[C@H]3OC[C@@]3(OC(C)=O)[C@H]2[C@H](OC(=O)c2ccccc2)[C@]2(O)C[C@H](OC(=O)[C@H](O)[C@@H](NC(=O)OC(C)(C)C)c3ccccc3)C(C)=C1C2(C)C [Cabazitaxel] | 0 | 9.7 | 16.4 | 11.5
CC(C)NC[C@@H](C(=O)N1CCN(c2ncnc3c2[C@H](C)C[C@H]3O)CC1)c1ccc(Cl)cc1 [Ipatasertib] | 0 | 0 | 3.3 | 3.7
COc1ccc(C2=N[C@@H](c3ccc(Cl)cc3)[C@@H](c3ccc(Cl)cc3)N2C(=O)N2CCNC(=O)C2)c(OC(C)C)c1 [Nutlin-3] | 0 | 0 | 0 | 0
